Source: US20200024662A1, “METHODS FOR TREATING OPIOID ADDICTION” (ASSUREX HEALTH, INC., priority 2016, published 2020)

Test system: patients treated with Methadone in the START trial
Assay: PD Model 1 binning vs Methadone completion
Type: in vivo, human
Experimental: For the model analyses, models were developed that sort patients into one of three categories, Green (‘G’) Yellow (‘Y’) or Red (‘R’). Patients determined to be high risk for non-completion by the model are placed into the Red Bin. Patients at intermediate risk of non-completion are placed in the Yellow Bin, and for this study, Yellow Bin patients are treated the same as patients found to be at Low Risk of non-completion, or those who are placed in the Green Bin. Thus, the Green and Yellow bins are combined for analysis.
PD Model 1: The completion percentage was calculated for each genotype. For each gene and genotype completion percentage, the means and standard deviations were calculated. For each genotype that was greater than or equal to one standard deviation away from the mean, towards higher completion, a score of 1 was given. For each genotype that was greater than or equal to one standard deviation away from the mean, towards lower completion, a score of −1 was given. All others received a score of 0. The patient's PD risk was calculated by summing the total genotype risk score. The individual risk scores were combined to create the SumRisk variable; a final score of −1 was converted to Green, a score of 0 was converted to Yellow, and a score of 1 was converted to Red. […] A listing of tested alleles, and score assignments for PD Model 1 can be found in Table 16.
Samples from patients treated with Methadone in the START trial described in Example 1 above were used (N=352). […] Each model was tested as described below against Sample 1, Sample 2 and/or the Full Sample.
Pearson's product moment, Chi-square with Yates correction were calculated. Diagnostic tests, odds ratios, Pearson's product moment, Chi-square with Yates correction were calculated using MEDCALC and R version 3.3.1.

[1] = PD Model 1, Full Sample, COMT Low Risk, SLC6A4 High Risk (Yellow)
[2] = PD Model 1, Full Sample, COMT Low Risk, SLC6A4 Normal Risk (Green)
[3] = PD Model 1, Full Sample, COMT Normal Risk, SLC6A4 High Risk (Red)
[4] = PD Model 1, Full Sample, COMT Normal Risk, SLC6A4 Normal Risk (Yellow)
[5] = PD Model 1, Full Sample, Green bin
[6] = PD Model 1, Full Sample, Red bin
[7] = PD Model 1, Full Sample, Yellow bin
[8] = PD Model 1, Sample 1, COMT Low Risk, SLC6A4 High Risk (Yellow)
[9] = PD Model 1, Sample 1, COMT Low Risk, SLC6A4 Normal Risk (Green)
[10] = PD Model 1, Sample 1, COMT Normal Risk, SLC6A4 High Risk (Red)
[11] = PD Model 1, Sample 1, COMT Normal Risk, SLC6A4 Normal Risk (Yellow)
[12] = PD Model 1, Sample 1, Green bin
[13] = PD Model 1, Sample 1, Yellow bin
[14] = PD Model 1, Sample 2, COMT Low Risk, SLC6A4 High Risk (Yellow)
[15] = PD Model 1, Sample 2, COMT Low Risk, SLC6A4 Normal Risk (Green)
[16] = PD Model 1, Sample 2, COMT Normal Risk, SLC6A4 High Risk (Red)
[17] = PD Model 1, Sample 2, COMT Normal Risk, SLC6A4 Normal Risk (Yellow)
[18] = PD Model 1, Sample 2, Green bin
[19] = PD Model 1, Sample 2, Yellow bin

## CCC(=O)C(CC(C)N(C)C)(c1ccccc1)c1ccccc1 (stereo not drawn) [Methadone, methadone]
[1]
  Completers: 13
  Non Completers: 1
[2]
  Completers: 62
  Non Completers: 4
[3]
  Completers: 39
  Non Completers: 13
[4]
  Completers: 193
  Non Completers: 27
[5]
  Completers: 62
  Non Completers: 4
PD Model 1, Full Sample, LR/HR vs. NR/NR
  Odds Ratio for non-completion: 0.5499
PD Model 1, Full Sample, LR/NR vs. NR/HR
  Odds Ratio for non-completion: 0.1935
PD Model 1, Full Sample, LR/NR vs. NR/NR
  Odds Ratio for non-completion: 0.4612
PD Model 1, Full Sample, NR/HR vs. NR/NR
  Odds Ratio for non-completion: 2.3827
[6]
  Completers: 39
  Non Completers: 13
[7]
  Completers: 206
  Non Completers: 28
[8]
  Completers: 8
  Non Completers: 0
[9]
  Completers: 34
  Non Completers: 1
[10]
  Completers: 20
  Non Completers: 7
[11]
  Completers: 94
  Non Completers: 12
[12]
  Completers: 34
  Non Completers: 1
PD Model 1, Sample 1, LR/HR vs. NR/NR
  Odds Ratio for non-completion: 0.4447
PD Model 1, Sample 1, LR/NR vs. NR/HR
  Odds Ratio for non-completion: 0.0840
PD Model 1, Sample 1, LR/NR vs. NR/NR
  Odds Ratio for non-completion: 0.2304
PD Model 1, Sample 1, NR/HR vs. NR/NR
  Odds Ratio for non-completion: 2.7417
PD Model 1, Sample 1, Red bin
  Completers: 20
  Non Completers: 7
[13]
  Completers: 102
  Non Completers: 12
[14]
  Completers: 7
  Non Completers: 0
[15]
  Completers: 39
  Non Completers: 2
[16]
  Completers: 21
  Non Completers: 6
[17]
  Completers: 92
  Non Completers: 9
[18]
  Completers: 39
  Non Completers: 2
PD Model 1, Sample 2, LR/HR vs. NR/NR
  Odds Ratio for non-completion: 0.6491
PD Model 1, Sample 2, LR/NR vs. NR/HR
  Odds Ratio for non-completion: 0.1795
PD Model 1, Sample 2, LR/NR vs. NR/NR
  Odds Ratio for non-completion: 0.5242
PD Model 1, Sample 2, NR/HR vs. NR/NR
  Odds Ratio for non-completion: 2.9206
PD Model 1, Sample 2, Red bin
  Completers: 21
  Non Completers: 6
[19]
  Completers: 99
  Non Completers: 9
